# Molecular target: T1, Rat liver microsomal squalene synthetase (Rattus norvegicus, UniProt Q02769)
# T1 construct: Rat liver microsome, the source of enzyme; from tissue; host or cells: rat liver microsomes
# T1 sequence (Q02769 1-416): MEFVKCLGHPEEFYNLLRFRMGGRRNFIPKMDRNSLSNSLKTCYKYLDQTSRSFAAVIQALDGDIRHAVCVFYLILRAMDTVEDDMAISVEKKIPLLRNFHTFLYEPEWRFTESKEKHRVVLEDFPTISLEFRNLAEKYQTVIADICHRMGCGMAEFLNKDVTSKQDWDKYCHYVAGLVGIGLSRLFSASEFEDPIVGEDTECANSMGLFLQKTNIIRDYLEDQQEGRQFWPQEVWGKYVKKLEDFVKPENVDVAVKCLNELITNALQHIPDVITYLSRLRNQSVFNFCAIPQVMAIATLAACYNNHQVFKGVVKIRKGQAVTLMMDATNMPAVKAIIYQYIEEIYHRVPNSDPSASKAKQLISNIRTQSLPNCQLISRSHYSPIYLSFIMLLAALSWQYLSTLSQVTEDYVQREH
# Experiment: In vitro inhibition of squalene synthetase
# Assay type: biochemical
# Details: 10 µM test compound; rat liver microsomes, labelled farnesyl pyrophosphate, 10 minutes at 37 °C; compared to controls with no test compound
# How it was run: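 Percent inhibition at 10 µM (or 1 µM), against controls without compound, was scored from radioactive squalene formed from labelled farnesyl pyrophosphate by rat liver microsomal enzyme. Incubations were kept oxygen-free with nitrogen and stopped with ethanolic KOH; squalene was isolated by hexane extraction and an alumina column.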
Compound,inhibition at 10 µM [%],% Inhibition at 10 µM [%]
"CCCN(Cc1ccc(Oc2cccc3ccccc23)cc1)C(=O)C1C(C(=O)O)C(C(=O)O)C1C(=O)N(CCC)Cc1ccc(Oc2cccc3ccccc23)cc1 (stereo not drawn) [Example 91, (1α,2β,3β,4α)-1,2-Di[N-propyl-N-(4-naphth-1-yloxybenzyl)aminocarbonyl]cyclobutane-3,4-dicarboxylic acid]",62,
"CCCN(Cc1ccc(Oc2ccccc2)cc1)C(=O)C1C(C(=O)O)C(C(=O)NCC(=O)O)C1C(=O)N(CCC)Cc1ccc(Oc2ccccc2)cc1 (stereo not drawn) [Example 106, (1α,2β,3β,4α)-1,2-Di[N-propyl-N-(4-phenoxybenzyl)aminocarbonyl]cyclobutane-3-4-dicarboxylic acid mono-Glycine amide]",92,
"CCCN(Cc1ccc(C(=O)c2ccccc2)cc1)C(=O)C1C(C(=O)O)C(C(=O)O)C1C(=O)N(CCC)Cc1ccc(C(=O)c2ccccc2)cc1 (stereo not drawn) [Example 118B, (1α,2β,3β,4α)-1,2-Di[N-propyl-N-(4-benzoylbenzyl)aminocarbonyl]cyclobutane-3,4-carboxylic acid]",51,
"CN(Cc1ccc(Oc2ccccc2)cc1)C(=O)NC1C(NC(=O)N(C)Cc2ccc(Oc3ccccc3)cc2)C(C(=O)O)C1C(=O)O (stereo not drawn) [Example 120, (1α,2β,3β,4α)-1,2-Di[N-methyl-N-(4-phenoxybenzyl)aminocarbonylamino]cyclobutane-3,4-dicarboxylic acid]",54,
"O=C(O)C1C(C(=O)O)C(C(=O)N(Cc2ccccc2)Cc2ccccc2)C1C(=O)N(Cc1ccccc1)Cc1ccccc1 (stereo not drawn) [Example 121, (1α,2β,3β,4α)-1,2-Di[N,N-dibenzylaminocarbonyl]cyclobutane-3,4-dicarboxylic acid]",44,
"O=C(O)C1C(C(=O)O)C(C(=O)N(Cc2ccccc2)Cc2ccc(Cl)cc2)C1C(=O)N(Cc1ccccc1)Cc1ccc(Cl)cc1 (stereo not drawn) [Example 122B, (1α,2β,3β,4α)-1,2-Di[N-benzyl-N-(4-chlorobenzyl)aminocarbonyl]cyclobutane-3,4-dicarboxylic acid]",57,
"(1α,2β,3β,4α)-1,2-Di[N-propyl-N-(4-phenoxybenzyl)aminocarbonyl]-3,4-di[(hydroxyimino)methyl]-cyclobutane [Example 79B]",,83

# Same assay, conditions: values marked * in Table 1: 1 µM test compound; rat liver microsomes, labelled farnesyl pyrophosphate, 10 minutes at 37 °C
Compound,inhibition at 1 µM [%],% Inhibition at 1 µM
"CCCN(Cc1ccc(Oc2ccccc2)cc1)C(=O)C1C(C(=O)O)C(C(=O)Nc2nnn[nH]2)C1C(=O)N(CCC)Cc1ccc(Oc2ccccc2)cc1 (stereo not drawn) [Example 92B, (1α,2β,3β,4a)-1,2-Di[N-propyl-N-(4-phenoxybenzyl)aminocarbonyl]cyclobutane-3-[N-(5-tetrazolyl)]carboxamide-4-carboxylic acid]",80,
"CCCN(Cc1ccc(Oc2ccccc2)cc1)C(=O)C1C(C(=O)O)C(C(=O)N2CCCC2C(=O)O)C1C(=O)N(CCC)Cc1ccc(Oc2ccccc2)cc1 (stereo not drawn) [Example 107, (1α,2β,3β,4α)-1,2-Di[N-propyl-N-(4-phenoxybenzyl)aminocarbonyl]cyclobutane-3,4-dicarboxylic acid mono-d,l-Proline amide]",75,
"CCCN(Cc1ccc(Oc2ccccc2)cc1)C(=O)C1C(C(=O)O)C(C(=O)N(C)CC(=O)O)C1C(=O)N(CCC)Cc1ccc(Oc2ccccc2)cc1 (stereo not drawn) [Example 108, (1α,2β,3β,4α)-1,2-Di[N-propyl-N-(4-phenoxybenzyl)aminocarbonyl]cyclobutane-3,4-dicarboxylic acid mono-Sarcosine amide]",59,
"CCCN(Cc1ccc(Oc2ccccc2)cc1)C(=O)C1C(C(=O)O)C(C(=O)NC(CC(=O)O)C(=O)O)C1C(=O)N(CCC)Cc1ccc(Oc2ccccc2)cc1 (stereo not drawn) [Example 109, (1α,2β,3β,4α)-1,2-Di[N-propyl-N-(4-phenoxybenzyl)aminocarbonyl]cyclobutane-3,4-dicarboxylic acid mono-d,l-Aspartic acid amide]",78,
"CCCN(Cc1ccc(Oc2ccccc2)cc1)C(=O)C1C(C(=O)O)C(C(=O)NCCC(=O)O)C1C(=O)N(CCC)Cc1ccc(Oc2ccccc2)cc1 (stereo not drawn) [Example 111, (1α,2β,3β,4α)-1,2-Di[N-propyl-N-(4-phenoxybenzyl)aminocarbonyl]cyclobutane-3,4-dicarboxylic acid mono-β-Alanine amide]",49,
"CCCN(Cc1ccc(Oc2ccccc2)cc1)C(=O)CC1C(CC(=O)N(CCC)Cc2ccc(Oc3ccccc3)cc2)C(C(=O)O)C1C(=O)O (stereo not drawn) [Example 127C, (1α,2β,3β,4α)-1,2-Di-[N-propyl-N-(4-phenoxybenzyl)aminocarbonylmethyl]-cyclobutane-3,4-dicarboxylic acid]",68,
"O=C(O)CC1C(CC(=O)O)C(C(=O)N(Cc2ccccc2)Cc2ccc(Oc3ccccc3)cc2)C1C(=O)N(Cc1ccccc1)Cc1ccc(Oc2ccccc2)cc1 (stereo not drawn) [Example 128F, (1α,2β,3β,4α)-1,2-Di{N-benzyl-N-[(4-phenoxy)benzyl]aminocarbonyl)cyclobutane-3,4-diacetic acid]",80,
"CCCN(Cc1ccc(Oc2ccccc2)cc1)C(=S)C1C(C(=O)O)C(C(=O)O)C1C(=S)N(CCC)Cc1ccc(Oc2ccccc2)cc1 (stereo not drawn) [Example 130B, (1α,2β,3β,4α)-1,2-Di[N-propyl-N-(4-phenoxybenzyl)aminothiocarbonyl]cyclobutane-3,4-dicarboxylic acid]",48,
"(1α,2β,3β,4α)-1,2-Di[N-propyl-N-(4-(3,4-methylenedioxyphenoxy)benzyl)aminocarbonyl]cyclobutane-3,4-carboxylic acid [Example 119C]",,45* %
"(1α,2β,3β,4α)-1,2-Di[N-propyl-N-(4-phenoxybenzyl)aminocarbonyl]cyclobutane-3,4-dicarboxylic acid mono-d-Norleucine amide [Example 112]",,21* %
"(1α,2β,3β,4α)-1,2-Di[N-propyl-N-(4-phenoxybenzyl)aminocarbonyl]cyclobutane-3,4-dicarboxylic acid mono-l-Norleucine amide [Example 113]",,31* %

# Same assay, conditions: values marked * in Table 1: 1 µM test compound; rat liver microsomes, labelled farnesyl pyrophosphate, 10 minutes at 37 °C; 1 µM
row,Compound,% Inhibition at 1 µM
1,"(1α,2β,3β,4α)-1,2-Di[N-propyl-N-(4-phenoxybenzyl)aminocarbonyl]cyclobutane-3-phenoxycarbonyl-4-carboxylic acid [Example 105A]",48* %
2,"(1α,2β,3β,4α)-1,2-Di[N-propyl-N-(4-phenoxybenzyl)aminocarbonyl]cyclobutane-3-phenoxycarbonyl-4-carboxylic acid [Example 105B]",57* %

# Tested on: Cholesterol Synthesis
# Experiment: In vivo inhibition of cholesterol synthesis
# Details: Cynomolgus monkeys, 2 males and 2 females per group, 20 mg/kg, po, daily for a total of 5 days; average
# Description: Monkeys, Cynomolgus, 2 males and 2 females per group, Controls: 3.7-6.1 Kg body weight, Dosed animals: 4.8-5.6 Kg body weight) were fasted overnight and bled in the morning. Plasma samples were prepared and analyzed for total cholesterol, HDL-cholesterol and triglycerides. […] Dosing was continued daily for a total of 5 days. Prior to the last dose the animals were fasted overnight and bled after dosing but before feeding. Plasma samples (anticoagulated with EDTA) were prepared and analyzed as before. One-sample t-tests were calculated to test for significant change within a group across the experiment.
row,Compound,Total plasma cholesterol was lowered [%]
1,"CCCN(Cc1ccc(Oc2ccccc2)cc1)C(=O)[C@H]1[C@@H](C(=O)O)[C@H](C(=O)O)[C@@H]1C(=O)N(CCC)Cc1ccc(Oc2ccccc2)cc1 (racemic) [Example 17, (1α,2β,3β,4α)-1,2-Di[N-propyl-N-(4-phenoxybenzyl)aminocarbonyl]cyclobutane-3,4-dicarboxylic acid]",15.5

# Source: patent EP0677039B1, “CYCLOBUTANE DERIVATIVES AS INHIBITORS OF […] SYNTHETASE AND PROTEIN […]” (Abbott Laboratories, priority 1993, dated 1995)
